We go through 1 substance from patent publication US20250361480A1, “REINFORCED ENGINEERED CELLULARIZED-TISSUE” (Ramot at Tel-Aviv University Ltd., priority 2023, published 2025).

Series [1] deals with Primary human umbilical vein endothelial cells (HUVECs). Kind of series: Cell viability of HUVECs in 2D culture with SOx (PrestoBlue). The series is classed as cell-based. Conditions: SOx concentrations lower than 0.1% in the culturing medium, 48 hours, FIG. 2C. On the procedure:
Primary human umbilical vein endothelial cells (HUVECs) (Angio-Proteomie) were maintained in Endothelial Growth Medium (EGM-2) (Lonza) supplemented with an additional 1.5% (v/v) fetal bovine serum (FBS) (Biological Industries). Daily, PrestoBlue™ Cell Viability Reagent (Invitrogen) was added and cells were incubated for a fixed time interval. The medium was then transferred to a clean, opaque tissue culture well plate and fresh medium was added to the cells. The fluorescence was measured at 560/590 nm (Infinite M200 Pro).
Cells were incubated for 48 hours in 2D culture in order to allow toxic effects to become discernable. Data are presented in FIG. 2C as mean±standard deviation (SD), n=4.

A short description of series [2]: Rheological testing, shear thinning of hydrogel. The series is classed as physicochemical, porcine. Particulars: 37° C., FIG. 2D. On the procedure: Rheological measurements were performed using a Discovery HR-3 Hybrid Rheometer (TA Instruments, DE) with a 20 mm diameter parallel plate geometry and a Peltier plate to maintain the sample temperature. Shear thinning experiments were performed by varying the strain rate while maintaining a fixed strain of 20%.
The mechanical properties of an exemplary native ECM-based hydrogel and of cross-linked hydrogels were assessed by rheological measurements. Shear thinning Measurements were conducted at 37° C. Data are presented as mean±SD, n=3. P-values were calculated using a Comparison of Fits test with an Extra Sum of Squares F-test.

Series [3] can be described thus: Compressive (bulk) modulus of hydrogel. The series is classed as physicochemical, porcine. Conditions: compression, FIG. 2E. On the procedure: The compressive modulus measurements were performed using a Discovery HR-3 Hybrid Rheometer (TA Instruments, DE) with a 20 mm diameter parallel plate geometry and a Peltier plate to maintain the sample temperature. Bulk modulus tests were performed by compressing the samples at a fixed rate of 100 μm s^−1.
Alongside the rheological testing, the bulk mechanical properties of the hydrogel were also assessed. Samples were compressed, and the linear elastic modulus was calculated. Data are presented as mean±SD, n=3.

The conditions of series [4]: ninhydrin absorbance normalized to control, FIG. 2F.
Protocol: Aliquots of hydrogel (1 mL) were taken and either reacted with SOx or used as a control. Samples were lyophilized and then immersed in a 0.05% acetic acid solution (1 mL). To this was added 2% Ninhydrin in ethanol (w/v) (1 mL). The mixture was boiled for 90 minutes. Aliquots were taken and the absorbance of the solution was recorded at 570 nm (Infinite M200 Pro; Tecan, Switzerland).
To determine the ability of SOx to react with an ECM-based hydrogel, the concentration of amine groups present in the ECM before and after exposure to the Sox was assessed. […] Data are presented as mean±SD, n=4. All values were normalized to the average value of the control group. P-values were calculated using a one-tailed, unpaired, parametric t-test assuming that all samples have the same distribution.
For series [5] the following is noted: previous studies; cells added after crosslinking; cited from earlier work.

Turning to Oxidized sucrose [SOx], the “impact on cell viability” value in series [1] was “no impact on cell viability”. Further, the “gel viscosity, further change when increasing the SOx concentration” value in series [2] (SOx raised from 0.03% to 0.07%) is given as “smaller increase”. For the same substance, the “gel viscosity versus control gel” value in series [2] (hydrogel cross-linked with 0.03% SOx) was “large increase in gel viscosity”. Further, in series [3], the “hydrogel bulk modulus (linear elastic modulus) with and without exposure to SOx” value is listed as “significant reinforcement of the hydrogel”. Further, the “amines of the hydrogel that had reacted with the cross-linker” value in series [4] is 46%. Further, in series [5], the “toxicity when used to cross-link non-cellularized scaffolds” value was “reduced toxicity profile”.
